Where only a bound is given, the exact number is not on record here.

One assay has as its system adult female rats. The assay is described as follows: Post-coital antifertility efficacy in adult female rats. It is filed as in vivo, rat. Conditions: daily dose 10 mg/kg, oral, days 1-7 post-coitum.
The target of the next assay is T1, estrogen receptors (Rattus norvegicus, UniProt P06211).
T1 construct: Aliquot of uterine cytosol (200 μl; 2 uteri per ml) prepared in TEA buffer; from tissue; host or cells: uterine cytosol of immature estradiol-primed 20-21 day old rats
T1 sequence (P06211 1-600): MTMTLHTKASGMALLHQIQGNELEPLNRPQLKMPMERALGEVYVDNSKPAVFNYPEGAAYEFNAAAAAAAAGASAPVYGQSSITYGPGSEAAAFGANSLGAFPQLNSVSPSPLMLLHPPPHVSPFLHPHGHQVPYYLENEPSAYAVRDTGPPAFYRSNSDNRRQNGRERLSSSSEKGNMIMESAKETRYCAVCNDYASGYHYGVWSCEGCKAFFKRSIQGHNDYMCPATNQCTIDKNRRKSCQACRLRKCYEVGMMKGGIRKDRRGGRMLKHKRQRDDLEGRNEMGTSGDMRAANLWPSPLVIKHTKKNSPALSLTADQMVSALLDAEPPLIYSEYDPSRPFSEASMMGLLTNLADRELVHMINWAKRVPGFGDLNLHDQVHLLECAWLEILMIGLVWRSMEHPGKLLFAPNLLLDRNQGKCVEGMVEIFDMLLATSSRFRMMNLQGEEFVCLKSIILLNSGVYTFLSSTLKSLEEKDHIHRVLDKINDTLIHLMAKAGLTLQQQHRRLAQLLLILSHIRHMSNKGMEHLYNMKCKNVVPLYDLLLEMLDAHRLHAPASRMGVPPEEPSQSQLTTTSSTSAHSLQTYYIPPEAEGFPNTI
Description: Relative binding affinity (RBA) to estrogen receptors, 3H-estradiol competition assay. Also noted: key: % of 17-beta-estradiol binding affinity (estradiol = 100). Conditions: relative to 17-beta-estradiol (=100, percentage value); rat uterine cytosol, 3H-E2, 18 hrs at 4° C. An outline of the steps: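 Competition against a fixed concentration of ³H-estradiol for cytosolic receptor from uteri of immature (20-21 day) estradiol-primed rats, in TEA buffer pH 7.4 with ≤5% DMF, 18 h at 4° C. Free ligand removed with dextran-coated charcoal; bound radioactivity counted and RBA read from percent-bound vs log concentration plot, expressed as percentage.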

`CCCCN(C)CCCCCn1c2c(c3ccccc31)CCSc1ccccc1-2` [Example number 13, 12-[5-(N-butylmethylamino)pentyl]-6,7-dihydro-12H-benzothiepino [5,4-b]indole]: the “% Efficacy” value in the assay with adult female rats was “Inactive”. For the same molecule, the RBA at estrogen receptors is less than 0.001.

Turning to `c1ccc2c(c1)SCCc1c-2n(CCCCCCN2CCCCC2)c2ccccc12` [Example number 18, 12-[6-(Piperidine-1-yl)hexyl]-6,7-dihydro-12H-benzothiepino [5,4-b]indole], the “% Efficacy” value in the assay on adult female rats was “Inactive”. On estrogen receptors, the RBA worked out at 0.17.

The values above are taken from patent publication US20050282863A1, “Novel-N substituted dihydrobenzothiepino, dihydrobenzoxepino and tetrahydro benzocyclohepta indoles as selective estrogen receptor modulators” (Council of Scientific & Industrial Research, priority 2004, published 2005).
